Experimental data published in US10450549B2, “Aryloxyphenoxypropionate tolerance in turfrgass species and use of AAD1 as a selectable marker” (Dow AgroSciences, LLC, priority 2004, dated 2019).

Tested on: AAD1-transformed T0 ‘Crenshaw’ creeping bentgrass events (pDAB3878, pDAB5042)
Assay: Quizalofop-p-ethyl postemergence on AAD1-transformed T0 Crenshaw creeping bentgrass, visual % injury
Format: in vivo, Agrostis stolonifera L. var. palustris
Protocol: After molecular confirmation was utilized to identify transgenic events, a number of transgenic events were tested for herbicide tolerance. Specific isolated transgenic events were selected and maintained vegetatively through division of the crowns and replanting the clonal pieces into fresh growth medium. Clonally propagated plants were maintained by periodic “mowing” of vegetative tissues.
Growth medium was prepared by mixing Promix® and sand in a 2 to 1 ratio. The medium was contained in plastic pots with a surface area of 84.6 square centimeters (cm^2). When required to maintain plant health, a fungicide, insecticide, and/or other chemical or physical treatment was applied to stock plants. The plants were maintained in a greenhouse with an approximate 14 hour photoperiod which was maintained at 24-27° C. during the day and 22-25° C. during the night. Nutrients (Peters Excel® 15-5-15 5-Ca 2-Mg and iron chelate) were applied in the irrigation solution as needed, and water was added on a regular basis. Supplemental lighting was provided with overhead metal halide 1000-Watt lamps when photosynthetically active radiation (PAR) dropped below 500.
Selected T0 plants were sprayed with quizalofop-p-ethyl (Assure II®, DUPONT, Wilmington, Del.) at rates ranging from 60 to 2,240 g ae/ha. […] This rate also controls susceptible monocot weed species. Measured amounts were placed individually in 25 mL glass vials and dissolved in a 4 mL volume of 1.0% (v/v) Agri-Dex® Crop Oil Concentrate (COC) from HELENA CHEMICAL (Collierville, Tenn.). Application solutions were prepared by serial dilution of the highest rate applied. One-half the volume of the highest rate stock solution (2 mL) was transferred to a clean 25 mL vial containing an equal volume of 1% COC and the diluted solution was mixed. Additional dilutions were prepared similarly by removing one-half the volume of the previous concentration (2 mL), and adding to an equal volume of 1% COC and mixing. When preparing the lowest concentration, the remaining one-half volume was discarded. All 2 mL stock solutions were further diluted by adding 10 mL aqueous mixture of 1.0% (v/v) COC, so that the final spray solutions were 12 mL in volume and contained 1.0% (v/v) COC.
Spray solutions were applied to the plant material with an overhead Mandel™ track sprayer equipped with a 8002E nozzles calibrated to deliver 187 L/ha over an application area of 0.503 square meters (m^2) at a spray height of 18 inches (46 cm) above average plant canopy height. Control plants were sprayed in the same manner with the COC blank.
The treated plants and control plants were placed in a greenhouse, and watered by sub-irrigation to prevent wash-off of the test compounds. At various times after application, the condition of the test plants as compared with that of the untreated plants was determined visually and scored on a scale of 0 to 100 percent (where 0 corresponds to no injury or growth inhibition and 100 corresponds to complete kill). Regenerated, non-transformed (NT) ‘Crenshaw’ or elite line 2905-2 creeping bentgrass plants and/or seed-derived clonally propagated plants served as quizalofop sensitive controls.

SMILES: CCOC(=O)[C@@H](C)Oc1ccc(Oc2cnc3cc(Cl)ccc3n2)cc1 [quizalofop-p-ethyl]
- injury of events CBG12 and CBG23 (120 g ae/ha): uninjured
- injury of events CBG12 and CBG23 (480 g ae/ha): less than 10%
- Mean % Injury (SE) (event CBG2, 120 g ae/ha, 11 DAA): 30 (0) %
- Mean % Injury (SE) (event CBG2, 120 g ae/ha, 14 DAA): 30 (0) %
- Mean % Injury (SE) (event CBG2, 120 g ae/ha, 20 DAA): 25 (0) %
- Mean % Injury (SE) (event CBG2, 480 g ae/ha, 11 DAA): 45%
- Mean % Injury (SE) (event CBG2, 480 g ae/ha, 14 DAA): 45%
- Mean % Injury (SE) (event CBG2, 480 g ae/ha, 20 DAA): 40%
- Mean % Injury (SE) (event CBG4, 120 g ae/ha, 11 DAA): 70 (0) %
- Mean % Injury (SE) (event CBG4, 120 g ae/ha, 14 DAA): 85 (0) %
- Mean % Injury (SE) (event CBG4, 120 g ae/ha, 20 DAA): 90 (3) %
- Mean % Injury (SE) (event CBG5, 120 g ae/ha, 11 DAA): 32 (6) %
- Mean % Injury (SE) (event CBG5, 120 g ae/ha, 14 DAA): 42 (8) %
- Mean % Injury (SE) (event CBG5, 120 g ae/ha, 20 DAA): 23 (7) %
- Mean % Injury (SE) (event CBG5, 480 g ae/ha, 11 DAA): 30 (5) %
- Mean % Injury (SE) (event CBG5, 480 g ae/ha, 14 DAA): 30 (5) %
- Mean % Injury (SE) (event CBG5, 480 g ae/ha, 20 DAA): 10 (0) %
- Mean % Injury (SE) (event CBG12, 120 g ae/ha, 11 DAA): 0 (0) %
- Mean % Injury (SE) (event CBG12, 120 g ae/ha, 14 DAA): 0 (0) %
- Mean % Injury (SE) (event CBG12, 120 g ae/ha, 20 DAA): 0 (0) %
- Mean % Injury (SE) (event CBG12, 480 g ae/ha, 11 DAA): 5 (3) %
- Mean % Injury (SE) (event CBG12, 480 g ae/ha, 14 DAA): 5 (3) %
- Mean % Injury (SE) (event CBG12, 480 g ae/ha, 20 DAA): 5 (0) %
- Mean % Injury (SE) (event CBG14, 120 g ae/ha, 11 DAA): 15 (5) %
- Mean % Injury (SE) (event CBG14, 120 g ae/ha, 14 DAA): 18 (3) %
- Mean % Injury (SE) (event CBG14, 120 g ae/ha, 20 DAA): 5 (5) %
- Mean % Injury (SE) (event CBG14, 480 g ae/ha, 11 DAA): 30%
- Mean % Injury (SE) (event CBG14, 480 g ae/ha, 14 DAA): 25%
- Mean % Injury (SE) (event CBG14, 480 g ae/ha, 20 DAA): 15%
- Mean % Injury (SE) (event CBG23, 120 g ae/ha, 11 DAA): 0 (0) %
- Mean % Injury (SE) (event CBG23, 120 g ae/ha, 14 DAA): 0 (0) %
- Mean % Injury (SE) (event CBG23, 120 g ae/ha, 20 DAA): 0 (0) %
- Mean % Injury (SE) (event CBG23, 480 g ae/ha, 11 DAA): 7 (2) %
- Mean % Injury (SE) (event CBG23, 480 g ae/ha, 14 DAA): 7 (3) %
- Mean % Injury (SE) (event CBG23, 480 g ae/ha, 20 DAA): 0 (0) %
- Mean % Injury (SE) (event CBG27, 120 g ae/ha, 11 DAA): 68 (3) %
- Mean % Injury (SE) (event CBG27, 120 g ae/ha, 14 DAA): 75 (5) %
- Mean % Injury (SE) (event CBG27, 120 g ae/ha, 20 DAA): 75 (5) %
- Mean % Injury (SE) (event CBG27, 480 g ae/ha, 11 DAA): 85%
- Mean % Injury (SE) (event CBG27, 480 g ae/ha, 14 DAA): 85%
- Mean % Injury (SE) (event CBG27, 480 g ae/ha, 20 DAA): 85%
- Mean % Injury (SE) (event CBG31, 120 g ae/ha, 11 DAA): 0%
- Mean % Injury (SE) (event CBG31, 120 g ae/ha, 14 DAA): 5%
- Mean % Injury (SE) (event CBG31, 120 g ae/ha, 20 DAA): 0%
- Mean % Injury (SE) (event CBG32, 120 g ae/ha, 11 DAA): 5 (0) %
- Mean % Injury (SE) (event CBG32, 120 g ae/ha, 14 DAA): 0 (0) %
- Mean % Injury (SE) (event CBG32, 120 g ae/ha, 20 DAA): 0 (0) %
- Mean % Injury (SE) (event CBG32, 480 g ae/ha, 11 DAA): 20%
- Mean % Injury (SE) (event CBG32, 480 g ae/ha, 14 DAA): 20%
- Mean % Injury (SE) (event CBG32, 480 g ae/ha, 20 DAA): 5%
- Mean % Injury (SE) (event CBG33, 120 g ae/ha, 11 DAA): 8 (3) %
- Mean % Injury (SE) (event CBG33, 120 g ae/ha, 14 DAA): 10 (0) %
- Mean % Injury (SE) (event CBG33, 120 g ae/ha, 20 DAA): 5 (0) %
- Mean % Injury (SE) (event CBG33, 480 g ae/ha, 11 DAA): 15%
- Mean % Injury (SE) (event CBG33, 480 g ae/ha, 14 DAA): 15%
- Mean % Injury (SE) (event CBG33, 480 g ae/ha, 20 DAA): 15%
- Mean % Injury (SE) (event CBG38, 120 g ae/ha, 11 DAA): 14 (1) %
- Mean % Injury (SE) (event CBG38, 120 g ae/ha, 14 DAA): 13 (3) %
- Mean % Injury (SE) (event CBG38, 120 g ae/ha, 20 DAA): 6 (1) %
- Mean % Injury (SE) (event CBG38, 480 g ae/ha, 11 DAA): 22 (4) %
- Mean % Injury (SE) (event CBG38, 480 g ae/ha, 14 DAA): 22 (4) %
- Mean % Injury (SE) (event CBG38, 480 g ae/ha, 20 DAA): 13 (2) %
